Drawing on the NIST ThermoML archive (doi:10.1021/je200799u), this text covers refractive index for four compounds.

Structures are written as SMILES. ± gives the expanded uncertainty stated by the source.

The data set can be described thus: refractive index (Na D-line) (dimensionless). To be noted: 298.15 K; 101.33 kPa; Liquid; Standard Abbe refractometry.

The refractive index is a measure of how strongly the sample bends light. Turning to `CCCCCCCCCCCC` [dodecane], the refractive index came out at 1.4196 ± 0.0007. Under `CC(=O)[O-].C[NH2+]CCO` [N-methyl-2-hydroxyethylammonium acetate] stands 1.4584 ± 0.0012. As for `CCCC(=O)[O-].C[NH2+]CCO` [N-methyl-2-hydroxyethylammonium butanoate], the figure is 1.4555 ± 0.0012; as for `CCCCCC(=O)[O-].C[NH2+]CCO` [N-methyl-2-hydroxyethylammonium hexanoate], 1.4563 ± 0.0012.
